Source: patent publication US9771330B2, “Pyrimidine compounds for the treatment of cancer” (The University of North Carolina at Chapel Hill, priority 2012, dated 2017)

Target: T1, Mer (Homo sapiens, UniProt Q12866)
T1 sequence (Q12866 21-999): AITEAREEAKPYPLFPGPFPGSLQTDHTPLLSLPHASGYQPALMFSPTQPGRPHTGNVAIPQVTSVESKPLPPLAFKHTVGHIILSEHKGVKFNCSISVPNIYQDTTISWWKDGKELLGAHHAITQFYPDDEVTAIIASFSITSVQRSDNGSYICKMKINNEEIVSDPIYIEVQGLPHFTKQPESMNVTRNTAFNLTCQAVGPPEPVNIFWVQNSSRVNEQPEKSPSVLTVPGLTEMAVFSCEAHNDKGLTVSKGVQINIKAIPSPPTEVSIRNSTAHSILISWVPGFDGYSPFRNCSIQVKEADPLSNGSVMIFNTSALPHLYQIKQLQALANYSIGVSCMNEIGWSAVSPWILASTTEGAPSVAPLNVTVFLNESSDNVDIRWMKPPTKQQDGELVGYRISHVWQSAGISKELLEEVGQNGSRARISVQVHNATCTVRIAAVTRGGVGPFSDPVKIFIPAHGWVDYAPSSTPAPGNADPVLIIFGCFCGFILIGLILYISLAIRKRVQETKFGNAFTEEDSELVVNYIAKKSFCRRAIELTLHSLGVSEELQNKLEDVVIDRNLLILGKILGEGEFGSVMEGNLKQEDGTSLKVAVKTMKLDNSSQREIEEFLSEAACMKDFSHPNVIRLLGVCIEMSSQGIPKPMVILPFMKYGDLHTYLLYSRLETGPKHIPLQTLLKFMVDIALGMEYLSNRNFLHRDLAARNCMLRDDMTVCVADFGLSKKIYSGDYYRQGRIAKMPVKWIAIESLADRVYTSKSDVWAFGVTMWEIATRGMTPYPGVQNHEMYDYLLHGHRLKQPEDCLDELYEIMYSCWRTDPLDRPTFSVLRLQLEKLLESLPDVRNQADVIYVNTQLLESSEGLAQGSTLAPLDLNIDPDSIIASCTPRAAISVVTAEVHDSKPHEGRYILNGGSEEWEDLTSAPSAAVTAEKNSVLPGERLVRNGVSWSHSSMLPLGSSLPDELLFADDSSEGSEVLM
Test: Mer IC50
Format: biochemical
Conditions: Table 2, compounds of General Procedure E

In the case of `N[C@H]1CCCCNc2nc(ncc2C(=O)NCC2CCOCC2)NCCCCCCNC1=O` [UNC2705A], the IC50 is reported as < 10 nM.
